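Each compound was tested at five concentrations against cells in 96-well plates for 48 hours. The concentration for 50% growth inhibition is given as GI50.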 The source made the active and inactive calls. Rule as the data show it: active = GI50 up to about 1.1 µM and inactive = higher. Where a SMILES comes first, the peptide text is derived from it. The star is where a group is joined. Fmoc = O=C(OCC1c2ccccc2-c2ccccc21)*; Boc = CC(C)(C)OC(=O)*
What was measured:
Assay in all cases: NCI-60 cell line screen, 48 h
[1] = test system: OVCAR-5
[2] = test system: SF-268
[3] = test system: RXF 393
[4] = test system: IGROV-1
[5] = test system: NCI-H226
[6] = test system: SK-MEL-2
[7] = test system: ACHN
[8] = test system: SW-620
[9] = test system: MCF7
[10] = test system: SNB-19
[11] = test system: UACC-62
[12] = test system: HL-60
[13] = test system: LOX IMVI
[14] = test system: MDA-MB-435
[15] = test system: RPMI-8226
[16] = test system: UO-31
[17] = test system: U-251
[18] = test system: SK-MEL-28
[19] = test system: NCI/ADR-RES
[20] = test system: BT-549

Measured: GI50

CC(C)(C)OC(=O)NCCCCC(NC(=O)OCC1c2ccccc2-c2ccccc21)C(=O)N1CCCC1C(=O)NCC(N)=O (stereo not drawn) (Fmoc-Lys(Boc)-Pro-Gly-NH2; configuration not given here)
inactive: [1] > 100 µM | [2] 95.5 µM | [3] 61 µM | [4] 48.4 µM | [5] > 100 µM | [6] > 100 µM | [7] 17.9 µM | [8] 87.9 µM | [9] 43.9 µM | [10] > 100 µM | [11] 46 µM | [12] 32.8 µM | [13] 21.3 µM | [14] 27.6 µM | [15] 50.7 µM | [16] 15.3 µM | [17] 18.5 µM | [18] > 100 µM | [19] 33.4 µM | [20] 66.2 µM

N#C/C(=C1C=C(Br)/C(=N\O)C=C\1Cl)c1cccc2ccccc12
inactive: [1] 3.55 µM | [2] 4.47 µM | [3] 1.37 µM | [4] 6.24 µM | [5] 2.17 µM | [6] 2.48 µM | [7] 11 µM | [8] 3.53 µM | [9] 4.93 µM | [10] 10.5 µM | [11] 4.12 µM | [12] 2.3 µM | [13] 4.29 µM | [14] 2.62 µM | [15] 5.77 µM | [16] 11 µM | [17] 2.96 µM | [18] 6.3 µM | [19] 4.01 µM | [20] 7.43 µM

— ChEMBL document CHEMBL1201862, “PubChem BioAssay data set” (2004)
